Laboratory results: patent US12173309B2, “Compounds for increasing genome editing efficiency” (Max-Planck-Gesellschaft zur Förderung der Wissenschaften …, priority 2017, dated 2024)
Entries after “also recorded” stand apart in the source; their conditions may differ.

Experiments:
[1] = system: 409-B2 iCRISPR-Cas9 iPSCs; experiment: PGE efficiency with iCRISPR Cas9 and ssODN donors; format: cell-based, human; conditions: 0.01 μM TSA, 0.5 μM MLN4924, 1 μM NSC 19630, 20 μM AICAR, 1 μM RS-1, 1 μM Resveratrol, 1 μM SCR7, 5 μM L755507, 5 μM STL127685, 20 μM B02
Description: (§1) FIG. 1: Genome editing and analysis flowchart. iCRISPR 409-B2 iPSCs are treated with 2 μg/ml doxycycline at least for 2 days to induce Cas9 or Cas9D10A expression. Reverse transfection with RNAiMAX, gRNA (7.5 nM each), ssODN (10 nM) and the small molecules to be evaluated is carried out in a 96 well plate for 1 day. The amount of cells used gives ˜80% confluency. Cells are then expanded for 3 days with regular media change. After harvest follows DNA extraction, PCR amplification of targeted loci, Illumina sequencing and CRISPResso (Pinello et al. 2016) sequence analysis for amount of indels and precise genome editing.
(§2) Cells were incubated with media containing 2 μg/ml doxycycline (Clontech, 631311) 2 days prior to lipofection. Lipofection (reverse transfection) was done using the alt-CRISPR manufacturer's protocol (IDT) with a final concentration of 7.5 nM of each gRNA and 10 nM of the respective ssODN. In brief, 0.75 μl RNAiMAX (Invitrogen, 13778075) and the respective oligonucleotides were separately diluted in 25 μl OPTI-MEM (Gibco, 1985-062) each and incubated at room temperature for 5 min. Both dilutions were mixed to yield 50 μl of OPTI-MEM including RNAiMAX, gRNAs and ssODNs. The lipofection mix was incubated for 20-30 min at room temperature. During incubation cells were dissociated using EDTA for 5 min and counted using the Countess Automated Cell Counter (Invitrogen). The lipofection mix, 100 μl containing 25.000 dissociated cells in mTeSR1 supplemented with Y-27632, 2 μg/ml doxycycline and the respective small molecule(s) to be tested were throughoutly mixed and put in one well of a 96 well covered with Matrigel Matrix (Corning, 35248). Media was exchanged to regular mTeSR1 media after 24 hours.
(§3) Three days after lipofection cells were dissociated using Accutase (SIGMA, A6964), pelleted, and resuspended in 15 μl QuickExtract (Epicentre, QE0905T). Incubation at 65° C. for 10 min, 68° C. for 5 min and finally 98° C. for 5 min was performed to yield ssDNA as a PCR template. Primers for each targeted loci of CALD1, KATNA1 and SLITRK1 containing adapters for Illumina sequencing were ordered from IDT (Coralville, USA). PCR was done in a T100 Thermal Cycler (Bio-Rad) using the KAPA2G Robust PCR Kit (Peqlab, 07-KK5532-03) with supplied buffer B and 3 μl of cell extract in a total volume of 25 μl. The thermal cycling profile of the PCR was: 95° C. 3 min; 34×(95° 15 sec, 65° C. 15 sec, 72° C. 15 sec); 72° C. 60 sec. P5 and P7 Illumina adapters with sample specific indices were added in a second PCR reaction (Kircher et al. 2012) using Phusion HF MasterMix (Thermo Scientific, F-531L) and 0.3 μl of the first PCR product. The thermal cycling profile of the PCR was: 98° C. 30 sec; 25× (98° 10 sec, 58° C. 10 sec, 72° C. 20 sec); 72° C. 5 min. Amplifications were verified by size separating agarose gel electrophoresis using EX gels (Invitrogen, G4010-11). The indexed amplicons were purified using Solid Phase Reversible Immobilization (SPRI) beads (Meyer, Kircher 2010). Double-indexed libraries were sequenced on a MiSeq (Illumina) giving paired-end sequences of 2×150 bp. After base calling using Bustard (Illumina) adapters were trimmed using leeHom (Renaud et al. 2014).
(§4) CRISPresso (Pinello et al. 2016) was used to analyse sequencing data from CRISPR genome editing experiments for percentage of wildtype, targeted nucleotide substitutions (TNS), indels and mix of TNS and indels. Parameters used for analysis were ‘-w 20’, ‘--min_identity_score 70’ and ‘--ignore_substitutions’ (analysis was restricted to amplicons with a minimum of 70% similarity to the wildtype sequence and to a window of 20 bp from each gRNA; substitutions were ignored, as sequencing errors would be falsely characterized as NHEJ-events). Sequencing data from colonies after single cell seeding (FIGS. 3B and C) was further analyzed by evaluating the actual read sequences using SAMtools. Clonal colonies were differentiated from mixed colonies using sequence read proportions. […]

[2] = system: 409-B2 iCRISPR-Cas9D10A iPSCs; experiment: Precise genome editing (PGE) efficiency with iCRISPR Cas9D10A double nicking and ssODN donors, Illumina sequencing/CRISPResso; format: cell-based, human; conditions: for effect on PGE frequency over CALD1, KATNA1 and SLITRK1 compared to controls: 1 μM NSC 19630, 20 μM AICAR, 1 μM RS-1, 1 μM Resveratrol, 1 μM SCR7, 5 μM L755507, 5 μM STL127685, 20 μM B02; for effect on PGE efficiency with ssODN (discussion summary): nuclease not stated; for PGE increase (mean change vs control): 20 μM NU7026, 0.01 μM TSA, 0.5 μM MLN4924, 5 μM NSC 15520, CRISPY mix = all four; for effect on PGE of further addition to the mix of NU7026, TSA and MLN4924: all loci, 5 μM NSC 15520, then 1 μM NSC 19630, 20 μM AICAR, 1 μM RS-1 (FIG. 5A)
Description: as §1, §2, §3, §4

[3] = system: 409-B2 iCRISPR Cas9D10A iPSCs; experiment: Cell death by phase contrast light microscopy in first concentration screen; format: cell-based, human
Excerpt: FIGS. 3A-3D: First screen for solvent effect and influence of different small molecule concentrations on genome edit-ing of CALD1, KATNA1 and SLITRK1 with iCRISPR Cas9D10A. Shown are precise genome editing (PGE) and indels with green circles (triangles) or blue diamonds, respectively. Each symbol represents a technical replicate. The respective means are shown as a black line. Each skull indicates cell death of up to 20% determined by phase contrast light microscopy.

[4] = system: rabbit embryos; conditions: literature; RS-1 with dsODN donors, control 4.4%; cited from earlier work
[5] = system: porcine fetal fibroblasts; conditions: literature; ssODN donors; cited from earlier work
[6] = system: U2OS cells; conditions: literature; dsODN donors, control 1.9%; cited from earlier work
[7] = system: HEK293A cells; conditions: literature; RS-1 with dsODN donors, control 3.5%; cited from earlier work
[8] = system: human stem cells; conditions: literature; cited from earlier work
[9] = molecular target: human LIG4 (Homo sapiens, UniProt P49917); conditions: literature (Greco et al. 2016); cited from earlier work
human LIG4, sequence (P49917 whole entry): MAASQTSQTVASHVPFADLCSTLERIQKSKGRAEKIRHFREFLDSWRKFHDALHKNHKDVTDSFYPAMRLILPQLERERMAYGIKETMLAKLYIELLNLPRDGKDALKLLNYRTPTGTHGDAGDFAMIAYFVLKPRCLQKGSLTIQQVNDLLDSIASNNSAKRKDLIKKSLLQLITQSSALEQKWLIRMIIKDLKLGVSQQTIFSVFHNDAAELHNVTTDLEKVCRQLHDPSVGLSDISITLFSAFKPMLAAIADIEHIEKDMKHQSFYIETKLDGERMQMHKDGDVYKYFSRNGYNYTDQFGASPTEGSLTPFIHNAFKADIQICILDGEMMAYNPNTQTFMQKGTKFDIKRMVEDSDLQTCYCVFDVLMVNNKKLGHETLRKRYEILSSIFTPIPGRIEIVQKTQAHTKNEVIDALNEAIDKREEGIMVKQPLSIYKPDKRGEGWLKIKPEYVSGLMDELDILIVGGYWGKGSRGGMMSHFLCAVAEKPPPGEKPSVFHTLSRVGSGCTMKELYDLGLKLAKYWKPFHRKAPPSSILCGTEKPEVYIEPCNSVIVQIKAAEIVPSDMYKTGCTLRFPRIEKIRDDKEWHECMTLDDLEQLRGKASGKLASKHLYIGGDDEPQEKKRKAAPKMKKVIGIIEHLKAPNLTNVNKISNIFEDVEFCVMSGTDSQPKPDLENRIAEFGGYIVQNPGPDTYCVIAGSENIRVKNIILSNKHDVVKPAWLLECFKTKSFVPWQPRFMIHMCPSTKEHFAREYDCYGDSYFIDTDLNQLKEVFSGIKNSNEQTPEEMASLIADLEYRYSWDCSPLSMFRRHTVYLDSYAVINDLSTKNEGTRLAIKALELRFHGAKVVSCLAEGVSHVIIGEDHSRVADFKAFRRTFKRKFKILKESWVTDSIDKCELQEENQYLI
human LIG4, sequence (Q13426 whole entry partner): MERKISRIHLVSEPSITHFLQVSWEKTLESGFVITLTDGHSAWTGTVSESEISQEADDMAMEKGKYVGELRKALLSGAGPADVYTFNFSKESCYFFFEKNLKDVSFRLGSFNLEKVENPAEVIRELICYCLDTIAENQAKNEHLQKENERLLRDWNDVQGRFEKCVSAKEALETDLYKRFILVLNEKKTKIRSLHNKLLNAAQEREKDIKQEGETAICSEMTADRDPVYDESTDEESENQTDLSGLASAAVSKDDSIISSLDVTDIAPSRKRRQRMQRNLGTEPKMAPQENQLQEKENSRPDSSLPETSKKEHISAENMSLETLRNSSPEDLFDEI

[10] = system: mouse ESCs; conditions: literature; dsODN donors, control 17.7%; cited from earlier work

| Structure (SMILES) | effect on PGE frequency over CALD1, KATNA1 and SLITRK1 compared to controls [1] | effect on PGE frequency over CALD1, KATNA1 and SLITRK1 compared to controls ([2]; Cas9D10A) | effect on PGE efficiency with ssODN (discussion summary) [2] | PGE [7] | also measured |
| --- | --- | --- | --- | --- | --- |
| O=c1c2ccccc2nc(/C=C/c2cccnc2)n1Cc1ccccc1 [B02] | halved | halved | halved |  |  |
| CC(/C=C/C(=O)NO)=C\[C@@H](C)C(=O)c1ccc(N(C)C)cc1 [TSA, Trichostatin A] | no enhancing effect |  |  |  | cell death ([3]; 0.1 μM): All cells died; cell death ([3]; 1 μM): All cells died; PGE increase (mean change vs control) ([2]; CALD1, Cas9D10A): 1.5 fold; higher PGE frequency than without the molecules ([2]; Cas9D10A, pooled across CALD1, KATNA1, SLITRK1 (FIG. 5A), p<0.001): 1.8 fold; PGE increase (mean change vs control) ([2]; KATNA1, Cas9D10A): 2.2 fold; PGE increase (mean change vs control) ([2]; SLITRK1, Cas9D10A): 1.8 fold |
| O=C(Nc1ccc(Br)cc1)c1ccc(Br)c(S(=O)(=O)NCc2ccccc2)c1 [RS-1] | no effect or a diminishing effect; also recorded: no clear effect | no clear effect | no beneficial effect | 21% | PGE [4]: 26.1%; effect on PGE efficiency [5]: No effect; effect on PGE of further addition to the mix of NU7026, TSA and MLN4924 ([2]; Cas9D10A): no measurable effect; PGE [6]: 2.4% |
| Oc1ccc(C=Cc2cc(O)cc(O)c2)cc1 [Resveratrol] | no effect or a diminishing effect | no clear effect |  |  |  |
| O=c1[nH]c(=S)[nH]c(N=Cc2ccccc2)c1N=Cc1ccccc1 [SCR7] | no effect or a diminishing effect; also recorded: no clear effect | no clear effect |  | marginal but significant increase | PGE [4]: no significant effect; effect on PGE [8]: no significant effect; inhibition of human LIG4 [9]: neither selective nor potent |
| CCCCCCNC(=O)Nc1ccc(S(=O)(=O)Nc2ccc(CCNC[C@H](O)COc3ccc(O)cc3)cc2)cc1 [L755507] | no effect or a diminishing effect; also recorded: no clear effect | no clear effect |  | did not find significant stimulation | PGE [10]: 33.3% |
| NC(=O)c1ncn([C@@H]2O[C@H](CO)[C@@H](O)[C@H]2O)c1N [AICAR] | no effect or a diminishing effect | no clear effect | no effect |  | effect on PGE of further addition to the mix of NU7026, TSA and MLN4924 ([2]; Cas9D10A): no measurable effect |
